Among the data in patent US10533006B2, “Nitrogen-containing heterocycle and carbocycle derivatives having TrkA inhibitory activity” (Shionogi & Co., Ltd., priority 2016, dated 2020) are IC50 values, retold here.

The target in the experiment is T1, human TrkA (Homo sapiens, UniProt P04629).
T1 construct: purchased Lifetechnologies PV3144
Description: Human TrkA inhibition assay. Type of experiment: biochemical. The conditions noted are these: human TrkA phosphorylation inhibition, ATP 500 μmol/L. On the procedure: Seven point five L per well of human TrkA (PV3144, Lifetechnologies, final concentration: 1 nmol/L) suspended in the assay buffer (100 mmol/L 4-(2-hydroxyethyl)-1-piperazineethanesulfonic acid (HEPES), 10 mmol/L magnesium chloride, 0.003 vol % Brij-35, 0.004 vol % Tween20 and 1 mmol/L dithiothreitol (DTT)) was applied in a 384 well plate and the plate was pre-incubated for 15 min at room temperature with 0.4 μL of each compound (final concentration: 200 μmol/L-0.1 nM) dissolved in DMSO. Then, fluorescent substrate (FL-peptide 27, 760424, PerkinElmer, final concentration: 1.5 μmol/L) and ATP (final concentration 500 μmol/L) dissolved in the assay buffer was added in each well. After the incubation of 120 min at 37° C., fifteen μL of termination buffer (100 mmol/L HEPES, 40 mmol/L ethylenediaminetetraacetic acid (EDTA), 10 mmol/L magnesium chloride, 0.003 vol % Brij-35, 0.004 vol % Tween20, 1 mmol/L DTT and 0.16 vol % Coating Reagent 3) was added in each well to stop the enzyme reaction. Fluorescent intensities (FI) of phosphorylated and non-phosphorylated fluorescent substrates were measured by LabChip EZReader II (Caliper LifeSciences, Inc.), and conversion ratio (CR) was calculated by the following formula-1. The CR in the well applied with DMSO alone was used as a negative control and the CR in the well without applying TrkA was used as a positive control. The inhibitory effect of each compound on TrkA phosphorylation was calculated by the following formula-2. CR (%)=(FI of phosphorylated substrate/(FI of phosphorylated substrate+FI of non-phosphorylated substrate))×100 (Formula-1) Phosphorylation inhibition (%)=(1−(CR with compound treatment−CR of positive control)/(CR of negative control−CR of positive control))×100 (Formula-2)
IC50 values (nmol/L) were determined by the logistic regression using the inhibition data in 10 points of 3-fold dilution series at a compound concentration range of 2 μmol/L to 0.1 nmol/L, or 15 points of 3-fold dilution series at the range of 200 μmol/L to 0.04 nmol/L.

Where two headings read alike, the source gives them in different places.

T1 sequence (P04629 33-796): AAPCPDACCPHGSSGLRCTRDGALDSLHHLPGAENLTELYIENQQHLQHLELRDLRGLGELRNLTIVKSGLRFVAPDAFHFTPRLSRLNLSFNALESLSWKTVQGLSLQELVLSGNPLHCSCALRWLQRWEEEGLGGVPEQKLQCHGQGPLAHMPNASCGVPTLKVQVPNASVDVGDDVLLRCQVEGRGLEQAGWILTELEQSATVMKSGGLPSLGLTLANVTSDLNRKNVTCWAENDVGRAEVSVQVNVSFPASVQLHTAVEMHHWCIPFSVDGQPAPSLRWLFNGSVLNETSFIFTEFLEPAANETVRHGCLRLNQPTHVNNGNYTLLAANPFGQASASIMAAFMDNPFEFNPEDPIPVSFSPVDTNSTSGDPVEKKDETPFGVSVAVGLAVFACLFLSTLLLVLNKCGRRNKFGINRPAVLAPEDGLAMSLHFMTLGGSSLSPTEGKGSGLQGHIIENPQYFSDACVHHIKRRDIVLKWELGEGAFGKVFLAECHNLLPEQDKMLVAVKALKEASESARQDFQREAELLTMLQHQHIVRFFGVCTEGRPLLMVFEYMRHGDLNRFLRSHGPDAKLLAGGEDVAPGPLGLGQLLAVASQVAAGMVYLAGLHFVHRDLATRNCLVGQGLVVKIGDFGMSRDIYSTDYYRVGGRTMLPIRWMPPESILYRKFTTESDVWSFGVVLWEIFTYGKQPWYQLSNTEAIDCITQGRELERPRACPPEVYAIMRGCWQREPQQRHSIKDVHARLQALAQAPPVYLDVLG

For the compound `COCCN1C[C@@H](NC(=O)Nc2c(C)c(-c3ccnc(C(=O)N[C@H]4CC[C@@H](O)CC4)c3)nn2-c2ccccc2)[C@H](c2ccccc2)C1` [Compound I-85], the IC50 (read-out: IC50_nM) is under 100 nM.

As for `COCCN1C[C@@H](NC(=O)Nc2c(C)c(-c3cnc4c(ccn4C)c3)nn2-c2ccccc2)[C@H](c2ccccc2)C1` (racemic) [Compound I-38], where the note is “read-out: IC50_nM”, the IC50 was under 100 nM.

In the case of `COCCN1C[C@@H](NC(=O)Nc2c(C)c(-c3ccnc(C(=O)NC4CCOCC4)c3)nn2-c2ccccc2)[C@H](c2ccccc2)C1` (racemic) [Compound I-29], under “read-out: IC50_nM”, the IC50 is under 100 nM.

Take `COCC[C@@H]1C[C@@H](NC(=O)Nc2c(C)c(-c3ccc(=O)[nH]c3)nn2-c2ccccc2)[C@H](c2ccccc2)C1` [Compound I-23]: under “read-out: IC50_nM”, the IC50 was under 100 nM.

With `COCCN1C[C@@H](NC(=O)Nc2c(C)c(-c3ccc(C(=O)NO)nc3)nn2-c2ccccc2)[C@H](c2ccccc2)C1` (racemic) [Compound I-150], the IC50 (read-out: IC50_nM) was under 100 nM.

For the compound `COCCN1C[C@@H](NC(=O)Nc2c(C)c(-c3cc(C(=O)NC4CCCCC4)c(=O)n(C)c3)nn2-c2ccccc2)[C@H](c2ccccc2)C1` (racemic) [Compound I-108], under “read-out: IC50_nM”, the IC50 is under 100 nM.

`COCCN1C[C@@H](NC(=O)Nc2c(C)c(-c3ccnc(C(=O)NCC(F)(F)F)c3)nn2-c2ccccc2)[C@H](c2ccccc2)C1` (racemic) [Compound I-48]: the IC50 (read-out: IC50_nM) is under 100 nM.

`COCCN1C[C@@H](NC(=O)Nc2c(C)c(-c3cc(C(=O)NC4CCS(=O)(=O)CC4)c(=O)n(C)c3)nn2-c2ccccc2)[C@H](c2ccccc2)C1` (racemic) [Compound I-110]: under “read-out: IC50_nM”, the IC50 is under 100 nM.

Regarding `COCC[C@@H]1C[C@@H](NC(=O)Nc2c(C)c(-c3cc(C(=O)NOC)c(=O)n(C)c3)nn2-c2ccccc2)[C@H](c2ccccc2)C1` [Compound I-153], under “read-out: IC50_nM”, the IC50 was under 100 nM.

Turning to `CCN1CCC(NC(=O)c2ccc(-c3nn(-c4ccccc4)c(NC(=O)N[C@@H]4C[C@@H](CCOC)C[C@H]4c4ccccc4)c3C)cc2)CC1` [Compound I-24], the IC50 (read-out: IC50 value) came out at 0.81 nM.

With `COCCN1C[C@@H](NC(=O)Nc2c(C)c(-c3ccnc(C(=O)NCCO)c3)nn2-c2ccccc2)[C@H](c2ccccc2)C1` (racemic) [Compound I-49], the IC50 (read-out: IC50_nM) is under 100 nM.

With `Cc1c(-c2cnn(C)c2)nn(-c2ccccc2)c1NC(=O)N[C@@H]1CN(Cc2ccccc2)C[C@H]1c1ccnc(F)c1` (racemic) [Compound I-18], for the setting “read-out: IC50_nM”, the IC50 was over 1000 nM.

With `COCC[C@@H]1C[C@@H](NC(=O)Nc2c(C)c(-c3cc(C(=O)OC)c(=O)n(C)c3)nn2-c2ccccc2)[C@H](c2ccccc2)C1` [Compound I-116], the IC50 (read-out: IC50_nM) is under 100 nM.

For `COCCN1C[C@@H](NC(=O)Nc2c(C)c(-c3ccnc(C(=O)N[C@H]4CC[C@H](O)CC4)c3)nn2-c2ccccc2)[C@H](c2ccccc2)C1` [Compound I-74], where the note is “read-out: IC50_nM”, the IC50 is under 100 nM.

As to `COCC[C@@H]1C[C@@H](NC(=O)Nc2c(C)c(-c3cnc4c(c3)nnn4C)nn2-c2ccccc2)[C@H](c2ccnc(F)c2)N1C` [Compound I-171], the IC50 (read-out: IC50_nM) was under 100 nM.

In the case of `COCC[C@@H]1C[C@@H](NC(=O)Nc2c(C)c(-c3cnc(OC)nc3)nn2-c2ccccc2)[C@H](c2ccnc(F)c2)C1` [Compound I-165], the IC50 (read-out: IC50_nM) was under 100 nM.

With `COCCN1C[C@@H](NC(=O)Nc2c(C)c(-c3cc(C(=O)NO)c(=O)n(C)c3)nn2-c2ccccc2)[C@H](c2ccccc2)C1` (racemic) [Compound I-139], the IC50 (read-out: IC50_nM) was under 100 nM.

As for `COCCN1C[C@@H](NC(=O)Nc2c(C)c(-c3ccnc(C(=O)NC4CC(F)(F)C4)c3)nn2-c2ccccc2)[C@H](c2ccccc2)C1` (racemic) [Compound I-70], for the setting “read-out: IC50_nM”, the IC50 was under 100 nM.

`COCCN1C[C@@H](NC(=O)Nc2c(C)c(-c3cnc(OC)c(C(=O)NC#N)c3)nn2-c2ccccc2)[C@H](c2ccccc2)C1` (racemic) [Compound I-146]: the IC50 (read-out: IC50_nM) is under 100 nM.

In the case of `COCCN1C[C@@H](NC(=O)Nc2c(C)c(-c3cnc4c(c3)c(CO)nn4C)nn2-c2ccccc2)[C@H](c2ccccc2)C1` (racemic) [Compound I-65], where the note is “read-out: IC50_nM”, the IC50 is under 100 nM.

In the case of `COCCN1C[C@@H](NC(=O)Nc2c(C)c(-c3cc(C(=O)NC4CCOCC4)c(=O)n(C)c3)nn2-c2ccccc2)[C@H](c2ccccc2)C1` (racemic) [Compound I-56], the IC50 (read-out: IC50 value) came to 0.98 nM.

`CCNC(=O)c1cc(-c2nn(-c3ccccc3)c(NC(=O)N[C@@H]3CN(CCOC)C[C@H]3c3ccccc3)c2C)cn(CCOC)c1=O` (racemic) [Compound I-133]: the IC50 (read-out: IC50_nM) was under 100 nM.

As for `COCCN1C[C@@H](NC(=O)Nc2c(C)c(-c3ccnc(N=S(C)(C)=O)c3)nn2-c2ccccc2)[C@H](c2ccccc2)C1` (racemic) [Compound I-96], the IC50 (read-out: IC50_nM) is under 100 nM.

As to `COCC[C@@H]1C[C@@H](NC(=O)Nc2c3c(nn2-c2ccccc2)CCC3)[C@H](c2ccnc(F)c2)N1C` [Compound I-177], the IC50 (read-out: IC50_nM) was under 100 nM.

For the compound `COCCN1C[C@@H](NC(=O)Nc2cc(-c3cnc4c(cnn4C)c3)nn2C)[C@H](c2ccc(F)c(F)c2)C1` [Compound I-167], under “read-out: IC50 value”, the IC50 was 28 nM.

Consider `CNC(=O)c1cc(-c2nn(-c3ccccc3)c(NC(=O)N[C@@H]3CN(CCOC)C[C@H]3c3ccccc3)c2C)cn(CCOC)c1=O` (racemic) [Compound I-127], for which the IC50 (read-out: IC50_nM) is under 100 nM.

Turning to `COCC[C@@H]1C[C@@H](NC(=O)Nc2c(C)c(-c3ccc4c(cnn4C)c3)nn2-c2ccccc2)[C@H](c2ccc(F)c(F)c2)N1` [Compound I-8], the IC50 (read-out: IC50_nM) is under 100 nM.

For `COCCN1C[C@@H](NC(=O)Nc2c(C)c(N3CCc4c(cnn4C)C3)nn2-c2ccccc2)[C@H](c2ccccc2)C1` [Compound I-58], under “read-out: IC50_nM”, the IC50 was under 100 nM.

Regarding `COCCN1C[C@@H](NC(=O)Nc2c(C)c(-c3cnc4c(c3)nnn4C)nn2-c2ccccc2)[C@H](c2ccnc(F)c2)C1` (racemic) [Compound I-105], the IC50 (read-out: IC50_nM) was under 100 nM.

Turning to `COCC[C@@H]1C[C@@H](NC(=O)Nc2c(C)c(-c3ccc(OCc4ccccc4)nc3)nn2-c2ccccc2)[C@H](c2ccccc2)C1` [Compound I-22], the IC50 (read-out: IC50_nM) was under 100 nM.

Turning to `COCCN1C[C@@H](NC(=O)Nc2c(C)c(-c3ccc(C(=O)NCC(F)(F)F)nc3)nn2-c2ccccc2)[C@H](c2ccccc2)C1` (racemic) [Compound I-12], the IC50 (read-out: IC50_nM) is under 100 nM.

For `COCCN1C[C@@H](NC(=O)Nc2c(C)c(-c3cncc(N=S(C)(C)=O)c3)nn2-c2ccccc2)[C@H](c2ccccc2)C1` (racemic) [Compound I-106], for the setting “read-out: IC50_nM”, the IC50 was under 100 nM.

Consider `COCCN1C[C@@H](NC(=O)Nc2c(C)c(-c3cnc4nccn4c3)nn2-c2ccccc2)[C@H](c2ccccc2)C1` (racemic) [Compound I-30], for which the IC50 (read-out: IC50_nM) is under 100 nM.

Take `CCNC(=O)c1cc(-c2nn(-c3ccccc3)c(NC(=O)N[C@@H]3CN(CCOC)C[C@H]3c3ccccc3)c2C)ccn1` (racemic) [Compound I-46]: for the setting “read-out: IC50_nM”, the IC50 is under 100 nM.

For `COCC[C@@H]1C[C@@H](NC(=O)Nc2c(C)c(-c3ccc4c(cnn4C)c3)nn2-c2ccccc2)[C@H](c2ccc(F)c(F)c2)N1C` [Compound I-9], where the note is “read-out: IC50_nM”, the IC50 was under 100 nM.

Regarding `COCCN1C[C@@H](NC(=O)Nc2c(C)c(-c3ccc(C(N)=O)nc3)nn2-c2ccccc2)[C@H](c2ccccc2)C1` (racemic) [Compound I-42], the IC50 (read-out: IC50_nM) is under 100 nM.

In the case of `COCCN1C[C@@H](NC(=O)Nc2c(C)c(-c3cnc4c(c3)ncn4C)nn2-c2ccccc2)[C@H](c2ccccc2)C1` (racemic) [Compound I-51], the IC50 (read-out: IC50_nM) is under 100 nM.

As to `COCCN1C[C@@H](NC(=O)Nc2c(C)c(-c3cnc4ccnn4c3)nn2-c2ccccc2)[C@H](c2ccccc2)C1` (racemic) [Compound I-40], the IC50 (read-out: IC50_nM) is under 100 nM.

As for `CCOC(=O)NC(=O)c1cc(-c2nn(-c3ccccc3)c(NC(=O)N[C@@H]3CN(CCOC)C[C@H]3c3ccccc3)c2C)cnc1OC` (racemic) [Compound I-157], for the setting “read-out: IC50_nM”, the IC50 is under 100 nM.

For `CCNC(=O)c1cc(-c2nn(-c3ccccc3)c(NC(=O)N[C@@H]3CN(CCOC)C[C@H]3c3ccccc3)c2C)cn(C)c1=O` (racemic) [Compound I-54], where the note is “read-out: IC50_nM”, the IC50 is under 100 nM.

In the case of `COCC[C@@H]1C[C@@H](NC(=O)Nc2c(C)c(-c3cnc(N4CC(O)C4)nc3)nn2-c2ccccc2)[C@H](c2ccnc(F)c2)C1` [Compound I-166], the IC50 (read-out: IC50_nM) was under 100 nM.

Consider `Cc1c(-c2ccc3c(cnn3C)c2)nn(-c2ccccc2)c1NC(=O)N[C@@H]1C[C@@H](CCOC(F)(F)F)C[C@H]1c1ccc(F)c(F)c1` [Compound I-11], for which the IC50 (read-out: IC50_nM) was under 100 nM.

Regarding `CCNC(=O)c1cc(-c2nn(-c3ccccc3)c(NC(=O)N[C@@H]3CN(CCOC)C[C@H]3c3ccccc3)c2C)cnc1OCC` (racemic) [Compound I-129], the IC50 (read-out: IC50_nM) is under 100 nM.

On to `COCCN1C[C@@H](NC(=O)Nc2c(C)c(-c3cc(C(=O)NC(C)(C)CO)c(=O)n(C)c3)nn2-c2ccccc2)[C@H](c2ccccc2)C1` (racemic) [Compound I-115], for which the IC50 (read-out: IC50_nM) is under 100 nM.
